According to PubChem BioAssay (NCI):
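Assay format: 96-well plates, 48-hour exposure. At the TGI there is no net growth.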

Columns and labels:
Assay in all cases: growth of human tumour cells (NCI), 48 h
786-0 renal = tested on: 786-0 renal
A549 NSCLC = tested on: A549 NSCLC
ACHN renal = tested on: ACHN renal
CAKI-1 renal = tested on: CAKI-1 renal
CCRF-CEM leukemia = tested on: CCRF-CEM leukemia
COLO 205 colon = tested on: COLO 205 colon
DLD-1 colon = tested on: DLD-1 colon
DMS 114 small cell lung = tested on: DMS 114 small cell lung
DMS 273 small cell lung = tested on: DMS 273 small cell lung
EKVX NSCLC = tested on: EKVX NSCLC
HCC-2998 colon = tested on: HCC-2998 colon
HCT-116 colon = tested on: HCT-116 colon
HCT-15 colon = tested on: HCT-15 colon
HL-60(TB) leukemia = tested on: HL-60(TB) leukemia
HOP-18 NSCLC = tested on: HOP-18 NSCLC
HOP-62 NSCLC = tested on: HOP-62 NSCLC
HOP-92 NSCLC = tested on: HOP-92 NSCLC
HT29 colon = tested on: HT29 colon
IGROV1 ovarian = tested on: IGROV1 ovarian
K-562 leukemia = tested on: K-562 leukemia
KM12 colon = tested on: KM12 colon
KM20L2 colon = tested on: KM20L2 colon
LOX IMVI melanoma = tested on: LOX IMVI melanoma
LXFL 529 NSCLC = tested on: LXFL 529 NSCLC
M14 melanoma = tested on: M14 melanoma
M19-MEL melanoma = tested on: M19-MEL melanoma
MALME-3M melanoma = tested on: MALME-3M melanoma
MOLT-4 leukemia = tested on: MOLT-4 leukemia
NCI-H226 lung = tested on: NCI-H226 lung
NCI-H23 lung = tested on: NCI-H23 lung
NCI-H460 lung = tested on: NCI-H460 lung
OVCAR-3 ovarian = tested on: OVCAR-3 ovarian
OVCAR-4 ovarian = tested on: OVCAR-4 ovarian
OVCAR-5 ovarian = tested on: OVCAR-5 ovarian
OVCAR-8 ovarian = tested on: OVCAR-8 ovarian
RXF 393 renal = tested on: RXF 393 renal
RXF-631 renal = tested on: RXF-631 renal
SF-268 CNS = tested on: SF-268 CNS
SF-295 CNS = tested on: SF-295 CNS
SF-539 CNS = tested on: SF-539 CNS
SK-MEL-2 melanoma = tested on: SK-MEL-2 melanoma
SK-MEL-28 melanoma = tested on: SK-MEL-28 melanoma
SK-MEL-5 melanoma = tested on: SK-MEL-5 melanoma
SK-OV-3 ovarian = tested on: SK-OV-3 ovarian
SN12C renal = tested on: SN12C renal
SNB-19 CNS = tested on: SNB-19 CNS
SNB-75 CNS = tested on: SNB-75 CNS
SNB-78 CNS = tested on: SNB-78 CNS
SR leukemia = tested on: SR leukemia
SW-620 colon = tested on: SW-620 colon
TK-10 renal = tested on: TK-10 renal
U251 CNS = tested on: U251 CNS
UACC-257 melanoma = tested on: UACC-257 melanoma
UACC-62 melanoma = tested on: UACC-62 melanoma
UO-31 renal = tested on: UO-31 renal
XF 498 CNS = tested on: XF 498 CNS
A498 renal = tested on: A498 renal
RPMI-8226 leukemia = tested on: RPMI-8226 leukemia
NCI-H522 lung = tested on: NCI-H522 lung

Measured: TGI

O=c1nc2sc3ccc4ccccc4c3n2nc1-c1ccccc1
40.4 µM: OVCAR-3 ovarian
29.3 µM: OVCAR-4 ovarian
59.2 µM: NCI-H460 lung
82.6 µM: IGROV1 ovarian
28.4 µM: LOX IMVI melanoma
38 µM: 786-0 renal
51.2 µM: HCT-116 colon
87.5 µM: NCI-H23 lung
87.4 µM: ACHN renal
51.4 µM: UO-31 renal
50.4 µM: TK-10 renal
73.9 µM: CAKI-1 renal
50 µM: HOP-92 NSCLC
38.2 µM: U251 CNS
33.3 µM: SF-295 CNS
70.6 µM: RXF 393 renal
95.1 µM: SK-OV-3 ovarian
41.1 µM: MALME-3M melanoma
42.2 µM: OVCAR-8 ovarian
> 100 µM: CCRF-CEM leukemia | COLO 205 colon | DLD-1 colon | DMS 114 small cell lung | DMS 273 small cell lung | EKVX NSCLC | HCC-2998 colon | HCT-15 colon | HL-60(TB) leukemia | HT29 colon | K-562 leukemia | KM12 colon | KM20L2 colon | LXFL 529 NSCLC | M14 melanoma | M19-MEL melanoma | MOLT-4 leukemia | NCI-H226 lung | OVCAR-5 ovarian | RXF-631 renal | SF-268 CNS | SK-MEL-2 melanoma | SK-MEL-28 melanoma | SK-MEL-5 melanoma | SNB-19 CNS | SNB-78 CNS | SR leukemia | SW-620 colon | UACC-257 melanoma | UACC-62 melanoma
34.2 µM: SF-539 CNS
93.8 µM: SN12C renal
93.7 µM: HOP-18 NSCLC
66.6 µM: HOP-62 NSCLC
70.2 µM: XF 498 CNS
46.9 µM: SNB-75 CNS
94.5 µM: A549 NSCLC

COc1c(CC(=O)c2ccccc2)c2ccccc2n1C(C)=O
> 100 µM: 786-0 renal | A498 renal | A549 NSCLC | ACHN renal | CAKI-1 renal | CCRF-CEM leukemia | COLO 205 colon | DLD-1 colon | DMS 114 small cell lung | DMS 273 small cell lung | EKVX NSCLC | HCC-2998 colon | HCT-116 colon | HCT-15 colon | HL-60(TB) leukemia | HOP-18 NSCLC | HOP-62 NSCLC | HOP-92 NSCLC | HT29 colon | IGROV1 ovarian | K-562 leukemia | KM12 colon | KM20L2 colon | LXFL 529 NSCLC | M14 melanoma | M19-MEL melanoma | MOLT-4 leukemia | NCI-H23 lung | NCI-H460 lung | OVCAR-3 ovarian | OVCAR-4 ovarian | OVCAR-8 ovarian | RPMI-8226 leukemia | RXF 393 renal | RXF-631 renal | SF-295 CNS | SF-539 CNS | SK-MEL-2 melanoma | SK-MEL-28 melanoma | SK-OV-3 ovarian | SN12C renal | SNB-19 CNS | SNB-75 CNS | SNB-78 CNS | SR leukemia | SW-620 colon | U251 CNS | UACC-257 melanoma | UACC-62 melanoma | UO-31 renal | XF 498 CNS

C/C(=N\N(C)C)C(CN1CCCCC1)C(c1ccccc1)c1c(O)c2ccccc2oc1=O (centres undefined)
> 100 µM: 786-0 renal | A498 renal | A549 NSCLC | ACHN renal | CAKI-1 renal | CCRF-CEM leukemia | COLO 205 colon | DLD-1 colon | DMS 114 small cell lung | DMS 273 small cell lung | EKVX NSCLC | HCT-116 colon | HCT-15 colon | HL-60(TB) leukemia | HOP-18 NSCLC | HOP-62 NSCLC | HT29 colon | IGROV1 ovarian | K-562 leukemia | KM12 colon | KM20L2 colon | LOX IMVI melanoma | LXFL 529 NSCLC | M14 melanoma | M19-MEL melanoma | MALME-3M melanoma | MOLT-4 leukemia | NCI-H226 lung | NCI-H23 lung | NCI-H460 lung | NCI-H522 lung | OVCAR-3 ovarian | OVCAR-4 ovarian | OVCAR-5 ovarian | OVCAR-8 ovarian | RPMI-8226 leukemia | RXF 393 renal | RXF-631 renal | SF-268 CNS | SF-295 CNS | SF-539 CNS | SK-MEL-2 melanoma | SK-MEL-28 melanoma | SK-MEL-5 melanoma | SK-OV-3 ovarian | SN12C renal | SNB-19 CNS | SNB-75 CNS | SNB-78 CNS | SR leukemia | SW-620 colon | TK-10 renal | U251 CNS | UACC-257 melanoma | UACC-62 melanoma | UO-31 renal | XF 498 CNS
